According to article PMC5354938, “Spleen cells from young but not old immunized mice eradicate large established cancers” (Clinical cancer research : an official journal of the …, 2012):
Like-named read-outs stand apart in the source and are kept apart here. Ends that are not written are not given here.

Key:
H2-D^b = H2-D^b (Mus musculus, UniProt P01899); conditions: MHC D^b; geometric mean of 5 or more experiments; Published in ref [19]; read-out: Affinity of peptide for MHC (IC50); cited from earlier work
H2-K^b [1] = molecular target: T1, H2-K^b (Mus musculus, UniProt P01901); assay: MHC peptide binding assay, purified H2-K^b
T1 construct: made in house
T1 sequence (P01901 22-369): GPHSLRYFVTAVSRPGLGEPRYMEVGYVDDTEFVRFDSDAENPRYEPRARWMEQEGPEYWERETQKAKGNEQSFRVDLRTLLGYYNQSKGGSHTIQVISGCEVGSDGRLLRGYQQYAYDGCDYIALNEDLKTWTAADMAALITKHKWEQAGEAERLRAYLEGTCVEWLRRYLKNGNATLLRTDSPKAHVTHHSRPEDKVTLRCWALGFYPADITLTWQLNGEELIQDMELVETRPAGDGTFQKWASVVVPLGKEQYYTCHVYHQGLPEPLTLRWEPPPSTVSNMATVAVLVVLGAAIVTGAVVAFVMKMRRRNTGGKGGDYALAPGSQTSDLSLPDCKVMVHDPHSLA
T1 sequence (P01887 21-119 partner): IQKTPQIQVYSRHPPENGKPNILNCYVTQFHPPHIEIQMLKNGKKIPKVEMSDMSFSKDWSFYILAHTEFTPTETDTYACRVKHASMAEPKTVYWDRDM
Description: MHC purification, and quantitative assays to measure the binding affinity of peptides to purified H2-K^b, H2-D^b, and HLA-A*0201 molecules were performed as previously described ([49], [50]).

H2-K^b [2] = molecular target: T1, H2-K^b; conditions: MHC K^b; geometric mean of 5 or more experiments; Published in ref [19]; read-out: Affinity of peptide for MHC (IC50); cited from earlier work
[3] = Affinity of peptide for MHC (IC50), MHC K^b, purified H2-K^b, geometric mean of 5 or more experiments

H2-D^b, sequence (P01899 whole entry, looked up): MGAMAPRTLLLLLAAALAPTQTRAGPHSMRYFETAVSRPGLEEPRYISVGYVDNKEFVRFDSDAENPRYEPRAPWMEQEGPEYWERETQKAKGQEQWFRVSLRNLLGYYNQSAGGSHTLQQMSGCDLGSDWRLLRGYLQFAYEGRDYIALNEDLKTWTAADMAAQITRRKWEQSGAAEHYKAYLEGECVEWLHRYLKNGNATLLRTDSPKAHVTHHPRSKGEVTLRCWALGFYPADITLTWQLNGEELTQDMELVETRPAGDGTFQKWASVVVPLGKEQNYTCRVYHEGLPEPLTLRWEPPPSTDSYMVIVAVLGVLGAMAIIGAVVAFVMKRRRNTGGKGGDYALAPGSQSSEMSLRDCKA

Sequence: IGMFNLTFI [A23R (297-305)]
- IC50 (H2-D^b): 0.34 nM

Sequence: SNFVFAGI [mp68 (547-554, 5F)]
- IC50 (H2-K^b [1]; [3]): 0.48 nM
- IC50 (H2-K^b [1]; binding to MHC Class I molecules with very high affinity (bound), discussion statement, very high affinity): < 1 nM

Sequence: SNFVSAGI [p68 (547-554)]
- IC50 (H2-K^b [1]; [3]): 22 nM

Sequence: YTLIYRQL [A6L (265-272)]
- IC50 (H2-K^b [2]): 6 nM
